# Experimental data from patent publication US7569574B2, “Purine derivatives, the preparation thereof and their use as pharmaceutical compositions” (Boehringer Ingelheim Pharma GmbH & Co. KG, priority 2002, dated 2009).
# pIC50: −log10 of the molar value. Counter-ions that a name gives are not always drawn.
# Target: T1, DPP-IV (Homo sapiens, UniProt P27487)
# T1 construct: an extract of human colon carcinoma cell line Caco-2 is used as the DPP IV source; endogenous in cells; host or cells: Caco-2 (human colon carcinoma), differentiated to induce DPP-IV expression; Nonidet-P40 solubilised extract
# Assay: DPP-IV assay with Caco-2 cell extract as DPP IV source, AFC substrate, fluorescence
# Format: biochemical
# Conditions: extract of human colon carcinoma cell line Caco-2; substrate 100 μM; 60 minutes at ambient temperature; read-out: DPP IV inhibition IC50
# Protocol: The differentiation of the cells in order to induce the DPP-IV expression was carried out as described by Reiher et al. in an article entitled “Increased expression of intestinal cell line Caco-2”, which appeared in Proc. Natl. Acad. Sci. Vol. 90, pages 5757-5761 (1993). The cell extract was obtained from cells solubilised in a buffer (10 mM Tris HCl, 0.15 M NaCl, 0.04 t.i.u. aprotinin, 0.5% Nonidet-P40, pH 8.0) by centrifuging at 35,000 g for 30 minutes at 4° C. (to remove cell debris).
# The DPP-IV assay was carried out as follows:
# 50 μl substrate solution (AFC; AFC is amido-4-trifluoromethylcoumarin), final concentration 100 μM, were placed in black microtitre plates. 20 μl of assay buffer (final concentrations 50 mM Tris HCl pH 7.8, 50 mM NaCl, 1% DMSO) was pipetted in. The reaction was started by adding 30 μl of solubilised Caco-2 protein (final concentration 0.14 μg of protein per well). The test substances to be investigated were typically added prediluted in 20 μl, and the volume of assay buffer was then reduced accordingly. The reaction was carried out at ambient temperature, incubating for 60 minutes. Then the fluorescence was measured in a Victor 1420 Multilabel Counter, the excitation wavelength being 405 nm and the emission wavelength being 535 nm. Blank readings (corresponding to 0% activity) were obtained in mixtures without any Caco-2 protein (volume replaced by assay buffer), control values (corresponding to 100% activity) were obtained in mixtures with no substance added.
# T1 sequence (P27487 whole entry): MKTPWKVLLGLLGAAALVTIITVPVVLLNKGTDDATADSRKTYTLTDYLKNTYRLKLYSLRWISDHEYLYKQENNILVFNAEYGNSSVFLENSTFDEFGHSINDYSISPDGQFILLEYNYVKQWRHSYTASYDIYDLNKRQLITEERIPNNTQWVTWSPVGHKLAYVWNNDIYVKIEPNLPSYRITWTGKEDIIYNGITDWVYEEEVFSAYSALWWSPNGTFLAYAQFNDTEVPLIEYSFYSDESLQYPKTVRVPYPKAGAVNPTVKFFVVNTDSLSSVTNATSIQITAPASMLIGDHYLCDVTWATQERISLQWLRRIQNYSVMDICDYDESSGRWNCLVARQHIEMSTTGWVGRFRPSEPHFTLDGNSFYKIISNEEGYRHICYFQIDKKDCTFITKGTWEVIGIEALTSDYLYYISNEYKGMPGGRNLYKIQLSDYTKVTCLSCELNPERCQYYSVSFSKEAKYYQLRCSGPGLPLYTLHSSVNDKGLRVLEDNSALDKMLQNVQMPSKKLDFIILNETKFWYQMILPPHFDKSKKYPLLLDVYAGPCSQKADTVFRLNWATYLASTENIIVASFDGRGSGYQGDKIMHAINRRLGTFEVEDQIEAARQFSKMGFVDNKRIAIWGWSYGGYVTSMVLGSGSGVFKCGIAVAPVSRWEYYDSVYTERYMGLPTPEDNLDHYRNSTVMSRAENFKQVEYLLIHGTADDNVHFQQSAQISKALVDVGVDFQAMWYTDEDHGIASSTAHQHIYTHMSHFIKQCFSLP
row,pIC50,SMILES
1,7.62,"Cn1c(NCc2ccc(F)cc2)nc2nc(N3CCCC(N)C3)n(Cc3ccccc3)c2c1=O (stereo not shown) [1(1), 8-(3-amino-piperidin-1-yl)-7-benzyl-2-(4-fluoro-benzylamino)-1-methyl-1,7-dihydro-purin-6-one trifluoroacetate]"
2,7.38,"Cn1c(NCCc2ccccc2)nc2nc(N3CCCC(N)C3)n(Cc3ccccc3)c2c1=O (stereo not shown) [1(2), 8-(3-amino-piperidin-1-yl)-7-benzyl-1-methyl-2-[(2-phenylethyl)amino]-1,7-dihydro-purin-6-one trifluoroacetate]"
3,6.96,"CC(C)Nc1nc2nc(N3CCCC(N)C3)n(Cc3ccccc3)c2c(=O)n1C (stereo not shown) [1(3), 8-(3-amino-piperidin-1-yl)-7-benzyl-2-isopropylamino-1-methyl-1,7-dihydro-purin-6-one trifluoroacetate]"
4,7.24,"CNc1nc2nc(N3CCCC(N)C3)n(Cc3ccccc3)c2c(=O)n1C (stereo not shown) [1(4), 8-(3-amino-piperidin-1-yl)-7-benzyl-1-methyl-2-methylamino-1,7-dihydro-purin-6-one trifluoroacetate]"
5,6.87,"Cn1c(NC2CCCCC2)nc2nc(N3CCCC(N)C3)n(Cc3ccccc3)c2c1=O (stereo not shown) [1(5), 8-(3-amino-piperidin-1-yl)-7-benzyl-2-cyclohexylamino-1-methyl-1,7-dihydro-purin-6-one trifluoroacetate]"
6,7.32,"Cn1c(NCC2CCCCC2)nc2nc(N3CCCC(N)C3)n(Cc3ccccc3)c2c1=O (stereo not shown) [1(6), 8-(3-amino-piperidin-1-yl)-7-benzyl-2-cyclohexylmethylamino-1-methyl-1,7-dihydro-purin-6-one trifluoroacetate]"
7,6.36,"Cn1c(N2CCCCC2)nc2nc(N3CCCC(N)C3)n(Cc3ccccc3)c2c1=O (stereo not shown) [1(7), 8-(3-amino-piperidin-1-yl)-7-benzyl-1-methyl-2-(piperidin-1-yl)-1,7-dihydro-purin-6-one hydrochloride]"
8,6.67,"CN(C)c1nc2nc(N3CCCC(N)C3)n(Cc3ccccc3)c2c(=O)n1C (stereo not shown) [1(8), 8-(3-amino-piperidin-1-yl)-7-benzyl-2-dimethylamino-1-methyl-1,7-dihydro-purin-6-one trifluoroacetate]"
9,7.21,"Cn1c(N)nc2nc(N3CCCC(N)C3)n(Cc3ccccc3)c2c1=O (stereo not shown) [1(9), 2-amino-8-(3-amino-piperidin-1-yl)-7-benzyl-1-methyl-1,7-dihydro-purin-6-one trifluoroacetate]"
10,7.27,"Cc1nc2nc(N3CCCC(N)C3)n(Cc3ccccc3)c2c(=O)n1C (stereo not shown) [1(11), 8-(3-amino-piperidin-1-yl)-7-benzyl-1-methyl-2-methyl-1,7-dihydro-purin-6-one trifluoroacetate]"
11,7.74,"CC(C)=CCn1c(N2CCCC(N)C2)nc2nc(CCc3ccccc3)n(C)c(=O)c21 (stereo not shown) [1(12), 8-(3-amino-piperidin-1-yl)-1-methyl-7-(3-methyl-but-2-en-1-yl)-2-(2-phenylethyl)-1,7-dihydro-purin-6-one trifluoroacetate]"
12,6.80,"CSc1nc2nc(N3CCCC(N)C3)n(Cc3ccccc3)c2c(=O)[nH]1 (stereo not shown) [1(14), 8-(3-amino-piperidin-1-yl)-7-benzyl-2-methylsulphanyl-1,7-dihydro-purin-6-one hydrochloride]"
13,7.24,"NC1CCCN(c2nc3nc(SCc4ccccc4)[nH]c(=O)c3n2Cc2ccccc2)C1 (stereo not shown) [1(15), 8-(3-amino-piperidin-1-yl)-7-benzyl-2-benzylsulphanyl-1,7-dihydro-purin-6-one trifluoroacetate]"
14,7.32,"NC1CCCN(c2nc3ncn(CC(=O)c4ccccc4)c(=O)c3n2Cc2ccccc2)C1 (stereo not shown) [1(22), 8-(3-amino-piperidin-1-yl)-7-benzyl-1-(2-oxo-2-phenyl-ethyl)-1,7-dihydro-purin-6-one trifluoroacetate]"
15,6.80,"Cn1c(CC(=O)c2ccccc2)nc2nc(N3CCCC(N)C3)n(Cc3ccccc3)c2c1=O (stereo not shown) [1(23), 8-(3-amino-piperidin-1-yl)-7-benzyl-1-methyl-2-(2-oxo-2-phenyl-ethyl)-1,7-dihydro-purin-6-one]"
16,6.95,"Cn1c(C#N)nc2nc(N3CCCC(N)C3)n(Cc3ccccc3)c2c1=O (stereo not shown) [1(24), 8-(3-amino-piperidin-1-yl)-7-benzyl-2-cyano-1-methyl-1,7-dihydro-purin-6-one trifluoroacetate]"
17,6.56,"CC(C)=CCn1c(N2CCCC(N)C2)nc2nc(C)n(Cc3ccccc3)c(=O)c21 (stereo not shown) [1(25), 8-(3-amino-piperidin-1-yl)-1-benzyl-2-methyl-7-(3-methyl-but-2-en-1-yl)-1,7-dihydro-purin-6-one]"
18,7.40,"CC(C)=CCn1c(N2CCCC(N)C2)nc2nc(C)n(Cc3cccc4ccccc34)c(=O)c21 (stereo not shown) [1(26), 8-(3-amino-piperidin-1-yl)-2-methyl-7-(3-methyl-but-2-en-1-yl)-1-[(naphthalen-1-yl)methyl]-1,7-dihydro-purin-6-one]"
19,7.72,"CC(C)=CCn1c(N2CCCC(N)C2)nc2ncn(Cc3cccc4ccccc34)c(=O)c21 (stereo not shown) [1(27), 8-(3-amino-piperidin-1-yl)-7-(3-methyl-but-2-en-1-yl)-1-[(naphthalen-1-yl)methyl]-1,7-dihydro-purin-6-one]"
20,7.24,"COc1ccc(Cn2cnc3nc(N4CCCC(N)C4)n(CC=C(C)C)c3c2=O)c2ccccc12 (stereo not shown) [1(28), 8-(3-amino-piperidin-1-yl)-7-(3-methyl-but-2-en-1-yl)-1-[(4-methoxy-naphthalen-1-yl)methyl]-1,7-dihydro-purin-6-one]"

row,SMILES,pIC50
1,"Cn1c(NCc2ccccc2)nc2nc(N3CCCC(N)C3)n(Cc3ccccc3)c2c1=O (stereo not shown) [Example 1, 8-(3-amino-piperidin-1-yl)-7-benzyl-2-benzylamino-1-methyl-1,7-dihydro-purin-6-one]",7.96

# System: not listed separately
# Assay: Tolerability after oral administration to rats
# Format: in vivo
# Conditions: 30 mg/kg
row,SMILES,toxic side effects or changes in the animals' behaviour
1,"Cn1c(NCc2ccccc2)nc2nc(N3CCCC(N)C3)n(Cc3ccccc3)c2c1=O (stereo not shown) [Example 1, 8-(3-amino-piperidin-1-yl)-7-benzyl-2-benzylamino-1-methyl-1,7-dihydro-purin-6-one]",no toxic side effects or changes in the animals' behaviour could be detected
